Patent US10189782B2, “Derivatives of indole for the treatment of cancer, viral infections and lung diseases” (BIOKINESIS, priority 2012, dated 2019)
Read-outs that look alike come from different tables or passages of the source.

Assays:
[1] = biological target: T1, Human recombinant MKlp2 motor domain1-519, His tagged (Homo sapiens, UniProt O95235); experiment: Microtubule stimulated ATPase activity of the MKlp2 motor domain (Kinesin ELIPA Assay Kit); type: biochemical
T1 construct: Human recombinant MKlp2 motor domain1-519, His tagged; His; purchased Cytoskeleton MP05
T1 sequence (O95235 1-519): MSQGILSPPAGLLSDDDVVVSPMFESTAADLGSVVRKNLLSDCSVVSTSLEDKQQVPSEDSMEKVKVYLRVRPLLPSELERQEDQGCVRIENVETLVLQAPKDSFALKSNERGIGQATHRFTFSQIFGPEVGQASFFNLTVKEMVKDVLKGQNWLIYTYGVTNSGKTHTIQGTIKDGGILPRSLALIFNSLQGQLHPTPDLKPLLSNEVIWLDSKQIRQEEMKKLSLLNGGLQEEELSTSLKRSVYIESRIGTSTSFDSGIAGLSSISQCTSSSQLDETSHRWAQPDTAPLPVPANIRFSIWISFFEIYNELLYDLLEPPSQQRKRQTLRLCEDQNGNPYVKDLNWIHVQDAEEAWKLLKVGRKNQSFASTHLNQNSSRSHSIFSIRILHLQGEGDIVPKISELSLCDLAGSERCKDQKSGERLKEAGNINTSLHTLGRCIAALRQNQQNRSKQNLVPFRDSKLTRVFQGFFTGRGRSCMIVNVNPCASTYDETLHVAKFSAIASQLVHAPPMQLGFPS
Method: Evaluation of Inhibitory Effects on the Microtubule Stimulated ATPase Activity of the MKlp2 Motor Domain.
MKlp2 ATPase activity was measured by monitoring real time free phosphate generation using the Kinesin ELIPA Assay Kit. The assay is based upon an absorbance shift (330 nm-360 nm) that occurs when 2-amino-6-mercapto-7-methylpurine ribonucleoside (MESG) is catalytically converted to 2-amino-6-mercapto-7-methylpurine in the presence of inorganic phosphate (Pi). One molecule of Pi will yield one molecule of 2-amino-6-mercapto-7-methylpurine in an essentially irreversible reaction.
All experiments were performed at 22° C.
Condition 1, compound preparation.
The compounds were dissolved in DMSO at 30× the maximum concentration to be tested. […] DMSO solutions were pipetted directly into each well.
Condition 2, reaction's “motor mix”.
The following were mixed sequentially in the specified order at RT to obtain the “motor mix”.
20 mL: 15 mM Pipes-NaOH pH 7.0, 10 mM MgCl2, 30 μM Tx (Buffer 1).
10 mL: 5× MSEG (ELIPA 1 reagent, Cat. # BK051).
10 mL: 2.5 mg/mL porcine brain microtubules (3×10 mg Cat. # MT002-XL resuspended in 12 mL of Buffer 1).
0.5 mL: 100×PNP (ELIPA 2 reagent, cat. # BK051).
Condition 3, reaction initiation.
The motor mix was pipetted into each well to obtain 80% of total volume. The reaction was initiated by adding a 20% of total volume of 5 mM ATP into each well.
The reactions were measured in a SpectraMax M2 (Molecular Devices) set in kinetic mode and 360 nm absorbance wavelength. The start protocol was 5 second rapid circular mixing, 21 readings, 30 seconds apart.

[2] = tested on: K562 cells; experiment: Cytotoxicity on human cancer cells (WST-1), K562; type: cell-based
Method: Evaluation of Cytotoxicity Effects on Human Cancer Cells
The effects of the compounds of the invention on the viability of human cancer cells were studied on various human cancer cell lines of differing tissue origins (A549, NCI-H460: lung cancer; MDA-MB-231: breast cancer; HCT-116, HT-29: colon cancer; MIA-PaCa-2: pancreatic cancer; K562: leukaemia). All cell lines were obtained from ATCC or ECACC. Cells were cultured in the culture media described below, under a 37° C., 5% CO2 humidified atmosphere, according to a standard operating procedure.
On D0, the cells were plated in 90 μl in 96 wells plates at densities ranging from 500 to 5,000 cells per well.
Following addition of the test substance the cells were protected from light. The solvents (DMSO and specific control solvent were added at the maximal concentration: 10 μl/well (3 wells/condition)).
On D4, the Cell Proliferation Reagent WST-1 was added to each well (10 μl/well), according to a standard operating procedure. The cells were then incubated for 30 min to 4 h at 37° C.-5% CO2. After these incubations, the 96-well plates were shaken thoroughly for 1 min with Multiskan® EX apparatus (Thermo Labsystems, France). The absorbence was measured at 450 nm, the reference wavelength being 620 nm. The analysis of the results was performed with the Ascent software 2.6 (Thermo Labsystems, France), Microsoft Excel 2003 and GraphPad Prism 4.03 softwares to give the concentration of the compounds that induces the death of 50% of the cells (IC50).

[3] = Table 6 (prodrugs, formula II), read-out: MKIp2 IC50
[4] = Table 6 (prodrugs, formula II), K562 cells, WST-1 on D4, read-out: K562 IC50
[5] = Table 3, 22° C., read-out: MKIp2 IC50
[6] = Table 4, K562 leukaemia cells, WST-1 on D4, read-out: K562 IC50
[7] = MKIp2 IC50 (μM), Table 3, 22° C.

IC50 [1, 5] [µM] | Structure (SMILES) | IC50 [2, 6] [µM] | IC50 [1, 7] [µM] | further results
 | COc1ccc(C#N)cc1/C=C(\C#N)c1cn(C(=O)CC(NC(=O)OC(C)(C)C)C(=O)OCc2ccccc2)c2ccc(Br)cc12 (stereo in doubt) [Example 65, (R,Z)-benzyl-4-(5-bromo-3-(1-cyano-2-(5-cyano-2-methoxyphenyl)vinyl)-1H-indol-1-yl)-2-(tert-butoxycarbonylamino)-4-oxobutanoate] |  |  | IC50 [1, 3]: 10.1 µM; IC50 [2, 4]: 0.04 µM
 | COc1ccc(C#N)cc1/C=C(\C#N)c1cn(C(=O)CCC(NC(=O)OC(C)(C)C)C(=O)OC(C)(C)C)c2ccc(Br)cc12 (stereo in doubt) [Example 66, (R,Z)-tert-butyl-5-(5-bromo-3-(1-cyano-2-(5-cyano-2-methoxyphenyl)vinyl)-1H-indol-1-yl)-2-(tert-butoxycarbonylamino)-5-oxopentanoate] |  |  | IC50 [1, 3]: 5.4 µM; IC50 [2, 4]: 0.03 µM
 | COc1ccc(C#N)cc1/C=C(\C#N)c1cn(C(=O)CC(N)C(=O)OCc2ccccc2)c2ccc(Br)cc12 (stereo in doubt) [Example 67, (R,Z)-benzyl-2-amino-4-(5-bromo-3-(1-cyano-2-(5-cyano-2-methoxyphenyl)vinyl)-1H-indol-1-yl)-4-oxobutanoate] |  |  | IC50 [1, 3]: 3.1 µM; IC50 [2, 4]: 0.04 µM
0.8 | N#C/C(=C\c1cnccc1Cl)c1c[nH]c2ccc(Cl)cc12 [Example 3, (Z)-2-(5-chloro-1H-indol-3-yl)-3-(4-chloropyridin-3-yl)acrylonitrile] | 3.6 |  | 
0.7 | N#C/C(=C\c1cnccc1Cl)c1c[nH]c2ccc(Br)cc12 [Example 4, (Z)-2-(5-bromo-1H-indol-3-yl)-3-(4-chloropyridin-3-yl)acrylonitrile] | 1.4 |  | 
0.61 | COc1ccncc1/C=C(/C#N)c1c[nH]c2ccc(Br)cc12 [Example 5b, (E)-2-(5-bromo-1H-indol-3-yl)-3-(4-methoxypyridin-3-yl)acrylonitrile] | 3.92 |  | 
0.9 | CN(C)c1ccncc1/C=C(\C#N)c1c[nH]c2ccc(Br)cc12 [Example 8, (Z)-2-(5-bromo-1H-indol-3-yl)-3-(4-(dimethylamino)pyridin-3-yl)acrylonitrile] | 7.5 |  | 
0.1 | COc1ccncc1/C=C(\C#N)c1c[nH]c2ccc(Cl)cc12 [Example 9, (Z)-2-(5-chloro-1H-indol-3-yl)-3-(4-methoxypyridin-3-yl)acrylonitrile] | 1.4 |  | 
0.3 | COc1ccc2[nH]cc(/C(C#N)=C/c3cnccc3OC)c2c1 [Example 12, (Z)-2-(5-methoxy-1H-indol-3-yl)-3-(4-methoxypyridin-3-yl)acrylonitrile] | 0.9 |  | 
0.2 | CSc1ccncc1/C=C(\C#N)c1c[nH]c2ccc(Br)cc12 [Example 15, (Z)-2-(5-bromo-1H-indol-3-yl)-3-(4-(methylthio)pyridin-3-yl)acrylonitrile] | 2.9 |  | 
1.1 | CCN(CC)c1ccncc1/C=C(\C#N)c1c[nH]c2ccc(Br)cc12 [Example 24, (Z)-2-(5-bromo-1H-indol-3-yl)-3-(4-(diethylamino)pyridin-3-yl)acrylonitrile] | 3.1 |  | 
0.03 | N#C/C(=C\c1cnccc1-c1ccoc1)c1c[nH]c2ccc(Cl)cc12 [Example 29, (Z)-2-(5-chloro-1H-indol-3-yl)-3-(4-(furan-3-yl)pyridin-3-yl)acrylonitrile] | 4.7 |  | 
0.07 | N#C/C(=C\c1cnccc1-c1ccoc1)c1c[nH]c2ccc(Br)cc12 [Example 34, (Z)-2-(5-bromo-1H-indol-3-yl)-3-(4-(furan-3-yl)pyridin-3-yl)acrylonitrile] | 2.2 |  | 
0.96 | N#C/C(=C/c1cnccc1-c1ccoc1)c1c[nH]c2ccc(Br)cc12 [Example 34b, (E)-2-(5-bromo-1H-indol-3-yl)-3-(4-(furan-3-yl)pyridin-3-yl)acrylonitrile] | 14.3 |  | 
0.73 | N#C/C(=C\c1c[n+]([O-])ccc1-c1ccoc1)c1c[nH]c2ccc(Br)cc12 [Example 48, (Z)-3-(2-(5-bromo-1H-indol-3-yl)-2-cyanovinyl)-4-(furan-3-yl)pyridine-1-oxide] | 6.71 |  | 
0.56 | COc1cc[n+]([O-])cc1/C=C(\C#N)c1c[nH]c2ccc(Cl)cc12 [Example 49, (Z)-3-(2-(5-chloro-1H-indol-3-yl)-2-cyanovinyl)-4-methoxypyridine 1-oxide] | 9.23 |  | 
 | N#C/C(=C\c1cnccc1O)c1c[nH]c2ccc(Cl)cc12 [Example 50, (Z)-2-(5-chloro-1H-indol-3-yl)-3-(4-hydroxypyridin-3-yl)acrylonitrile] | 14.7 |  | 
 | N#C/C(=C\c1cc(C#N)ccc1O)c1c[nH]c2ccc(Br)cc12 [Example 51, (Z)-3-(2-(5-bromo-1H-indol-3-yl)-2-cyanovinyl)-4-hydroxybenzonitrile] | 0.5 |  | 
 | N#C/C(=C\c1cc(C#N)ccc1OC(F)(F)F)c1c[nH]c2ccc(Cl)cc12 [Example 52, (Z)-3-(2-(5-chloro-1H-indol-3-yl)-2-cyanovinyl)-4-(trifluoromethoxy)benzonitrile] | 0.85 |  | 
 | N#C/C(=C\c1cc(C#N)ccc1OC(F)(F)F)c1c[nH]c2ccc(Br)cc12 [Example 53, (Z)-3-(2-(5-bromo-1H-indol-3-yl)-2-cyanovinyl)-4-(trifluoromethoxy)benzonitrile] | 0.38 |  | 
 | N#CC(=Cc1cccnc1)c1c[nH]c2ccccc12 [W02010/150211-Example 1, reference compound] |  |  | IC50 ([2]; K562, read-out: K562 IC50 (μM)): 21.4 µM
 | CCOc1ccc2[nH]cc(C(C#N)=Cc3cccnc3)c2c1 [W02010/150211-Example 22, reference compound] |  | 5.2 | 
 | CC(C)Oc1ccc2[nH]cc(C(C#N)=Cc3cccnc3)c2c1 [W02010/150211-Example 23, reference compound] |  | 5.2 | 
 | N#CC(=Cc1cccnc1)c1c[nH]c2ccc(Cl)cc12 [W02010/150211-Example 24, reference compound] |  | 1.1 | 
 | COc1ccc2c(C(C#N)=Cc3cccnc3)c[nH]c2c1 [W02010/150211-Example 26, reference compound] |  | 26.5 | 
 | COc1ccc2[nH]cc(C(C#N)=Cc3ccc(F)nc3)c2c1 [W02010/150211-Example 28, reference compound] |  | 2.4 | 
 | COc1ccc2[nH]cc(C(C#N)=Cc3cccc(C#N)c3)c2c1 [W02010/150211-Example 30, reference compound] |  | 4.4 | 
 | COc1ccc2[nH]cc(C(C#N)=Cc3cnccc3C)c2c1 [W02010/150211-Example 31, reference compound] |  | 2.3 | 
 | COc1ccc2[nH]cc(C(C#N)=Cc3cnccc3Cl)c2c1 [W02010/150211-Example 47, reference compound] |  | 1.6 | 
 | COc1ccc2[nH]cc(C(C#N)=Cc3ccc(OC)nc3)c2c1 [W02010/150211-Example 52, reference compound] |  | 12.6 | 
